One test has as its target ROCK1 (Homo sapiens, UniProt Q13464). Nature of the test: ROCK1 kinase enzymatic activity (HTRF, STK2 substrate). In kind it is biochemical. The conditions noted are these: ROCK1 kinase reacted at room temperature for 20 minutes. The text has this:
(§1) The kinase activity data was expressed by comparing the kinase activity of the test compound and that of the blank group (containing only DMSO), and the IC50 value was obtained by curve fitting using Prism software (GraphPad7.0).

In a further test the target is ROCK2 (Homo sapiens, UniProt O75116). As to the kind of experiment: ROCK2 kinase enzymatic activity (HTRF, STK2 substrate). In kind it is biochemical. Conditions: ROCK2 kinase reacted at room temperature for 30 minutes.
ROCK2, sequence (O75116 whole entry): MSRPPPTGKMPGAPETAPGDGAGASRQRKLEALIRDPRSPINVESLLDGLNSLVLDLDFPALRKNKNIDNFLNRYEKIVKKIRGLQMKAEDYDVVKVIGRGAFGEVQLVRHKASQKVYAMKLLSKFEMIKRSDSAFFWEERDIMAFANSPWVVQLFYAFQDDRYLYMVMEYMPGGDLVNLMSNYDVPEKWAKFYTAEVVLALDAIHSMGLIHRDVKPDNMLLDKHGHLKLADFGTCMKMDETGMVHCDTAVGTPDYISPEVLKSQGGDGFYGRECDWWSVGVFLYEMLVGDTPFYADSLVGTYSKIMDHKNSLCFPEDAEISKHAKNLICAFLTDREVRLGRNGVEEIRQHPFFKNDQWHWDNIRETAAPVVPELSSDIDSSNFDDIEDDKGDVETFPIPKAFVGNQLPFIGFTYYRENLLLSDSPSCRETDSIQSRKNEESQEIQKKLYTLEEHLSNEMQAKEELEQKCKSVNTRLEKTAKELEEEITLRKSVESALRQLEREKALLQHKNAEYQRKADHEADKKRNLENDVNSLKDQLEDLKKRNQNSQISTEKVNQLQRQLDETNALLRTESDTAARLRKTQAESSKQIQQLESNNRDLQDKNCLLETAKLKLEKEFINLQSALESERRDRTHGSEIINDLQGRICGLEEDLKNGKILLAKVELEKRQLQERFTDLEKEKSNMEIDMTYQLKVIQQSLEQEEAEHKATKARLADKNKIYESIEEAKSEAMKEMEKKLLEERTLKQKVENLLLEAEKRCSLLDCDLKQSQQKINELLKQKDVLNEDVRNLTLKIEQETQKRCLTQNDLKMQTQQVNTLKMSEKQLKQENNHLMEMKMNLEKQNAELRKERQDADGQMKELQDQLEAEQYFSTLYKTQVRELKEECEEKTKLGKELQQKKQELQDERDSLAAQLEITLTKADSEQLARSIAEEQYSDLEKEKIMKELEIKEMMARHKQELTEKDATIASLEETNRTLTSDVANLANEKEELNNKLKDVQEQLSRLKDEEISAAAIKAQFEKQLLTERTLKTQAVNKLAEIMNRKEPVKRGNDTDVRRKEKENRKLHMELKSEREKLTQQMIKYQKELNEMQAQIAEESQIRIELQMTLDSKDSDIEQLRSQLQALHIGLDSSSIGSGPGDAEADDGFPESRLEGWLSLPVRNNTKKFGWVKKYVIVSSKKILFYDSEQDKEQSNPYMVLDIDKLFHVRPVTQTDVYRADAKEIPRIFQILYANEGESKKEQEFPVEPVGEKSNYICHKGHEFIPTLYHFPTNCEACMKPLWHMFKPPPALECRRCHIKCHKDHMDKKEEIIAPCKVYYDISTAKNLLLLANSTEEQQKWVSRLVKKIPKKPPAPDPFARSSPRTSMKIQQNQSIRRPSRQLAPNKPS
Description: as §1
(Time-resolved FRET reads energy transfer from a long-lived donor to a nearby acceptor.)

ROCK1, sequence (Q13464 whole entry): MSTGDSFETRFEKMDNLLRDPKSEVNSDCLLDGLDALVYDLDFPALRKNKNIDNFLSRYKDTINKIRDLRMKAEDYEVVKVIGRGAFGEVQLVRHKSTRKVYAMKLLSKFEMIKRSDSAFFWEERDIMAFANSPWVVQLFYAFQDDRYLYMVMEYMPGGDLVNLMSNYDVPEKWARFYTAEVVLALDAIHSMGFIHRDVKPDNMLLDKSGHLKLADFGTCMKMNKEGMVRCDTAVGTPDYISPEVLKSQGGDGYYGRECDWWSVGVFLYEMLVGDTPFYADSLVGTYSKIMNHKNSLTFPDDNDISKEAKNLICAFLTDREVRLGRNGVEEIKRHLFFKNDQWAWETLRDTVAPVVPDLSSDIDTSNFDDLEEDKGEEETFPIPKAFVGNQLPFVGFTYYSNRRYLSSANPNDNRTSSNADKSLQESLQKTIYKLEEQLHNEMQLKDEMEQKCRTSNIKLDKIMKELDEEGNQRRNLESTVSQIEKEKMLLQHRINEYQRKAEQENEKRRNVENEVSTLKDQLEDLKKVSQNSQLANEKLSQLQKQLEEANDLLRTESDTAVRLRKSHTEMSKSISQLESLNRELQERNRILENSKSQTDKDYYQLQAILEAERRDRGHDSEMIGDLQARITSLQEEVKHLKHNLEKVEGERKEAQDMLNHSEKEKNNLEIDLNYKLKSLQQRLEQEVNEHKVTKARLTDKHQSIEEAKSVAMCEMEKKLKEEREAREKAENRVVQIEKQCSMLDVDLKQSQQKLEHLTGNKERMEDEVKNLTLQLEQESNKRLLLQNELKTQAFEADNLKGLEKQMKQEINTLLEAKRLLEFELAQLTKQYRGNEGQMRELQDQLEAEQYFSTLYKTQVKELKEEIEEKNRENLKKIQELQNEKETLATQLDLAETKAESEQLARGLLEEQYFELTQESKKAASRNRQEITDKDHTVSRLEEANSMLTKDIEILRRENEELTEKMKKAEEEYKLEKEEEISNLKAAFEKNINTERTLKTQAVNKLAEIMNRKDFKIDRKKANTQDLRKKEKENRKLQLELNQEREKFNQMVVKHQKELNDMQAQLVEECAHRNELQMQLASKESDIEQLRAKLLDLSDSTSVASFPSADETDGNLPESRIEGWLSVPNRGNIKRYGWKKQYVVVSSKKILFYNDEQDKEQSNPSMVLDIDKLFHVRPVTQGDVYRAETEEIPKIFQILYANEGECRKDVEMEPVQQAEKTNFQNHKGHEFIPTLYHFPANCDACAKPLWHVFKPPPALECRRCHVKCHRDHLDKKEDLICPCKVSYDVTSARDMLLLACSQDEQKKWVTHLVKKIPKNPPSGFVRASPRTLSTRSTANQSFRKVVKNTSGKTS

As for `CCS(=O)(=O)N1CC(CC#N)(n2cc(-c3cc(Cl)nc4ccnn34)c(N)n2)C1` [Example 84, 2-(3-(3-amino-4-(5-chloropyrazolo[1,5-a]pyrimidin-7-yl)-1H-pyrazol-1-yl)-1-(ethylsulfonyl)azetidine-3-yl)acetonitrile], the IC50 against ROCK1 and on ROCK2 was greater than 100 nM in each case.

For the compound `N#CCC1(n2cc(-c3ncnc4[nH]ccc34)c(N)n2)CN(S(=O)(=O)NCC(=O)O)C1` [Example 54], the half-inhibitory concentration (IC50) on ROCK1 and at ROCK2 was less than 50 nM each time.

For the compound `CS(=O)(=O)N1CC(CC#N)(n2cc(-c3cc(NC4CCOCC4)ncn3)c(N)n2)C1` [Example 75, 2-(3-(3-amino-4-(6-((tetrahydro-2H-pyran-4-yl)amino)pyrimidin-4-yl)-1H-pyrazol-1-yl)-1-(methylsulfonyl)azetidine-3-yl)acetonitrile], the IC50 at ROCK1 and against ROCK2 was greater than 100 nM throughout.

Turning to `CS(=N)(=O)N1CC(CC#N)(n2cc(-c3ncnc4[nH]ccc34)c(N)n2)C1` (stereo not drawn) [Example 36, 2-(3-(3-amino-4-(7H-pyrrolo[2,3-d]pyrimidin-4-yl)-1H-pyrazol-1-yl)-1-(S-methysulfonylimino)azetidine-3-yl)acetonitrile], the IC50 against ROCK1 and against ROCK2 was less than 5 nM each time.

As for `N#CCC1(n2cc(-c3ncnc4[nH]ccc34)c(N)n2)CN(C(=O)[C@@H]2C[C@H]2C#N)C1` [Example 35, (1R, 2R)-2-(3-(3-amino-4-(7H-pyrrolo[2,3-d]pyrimidin-4-yl)-1H-pyrazol-1-yl)-3-(cyanomethyl)azetidine-1-carbonyl)cyclopropane-1-nitrile], the IC50 against ROCK1 and on ROCK2 was less than 10 nM throughout.

With `COc1nn(C2(CC#N)CN(S(=O)(=O)C(C)C)C2)cc1-c1ncnc2[nH]ccc12` [Example 59, 2-(1-(isopropylsulfonyl)-3-(3-methoxy-4-(7H-pyrrolo[2,3-d]pyrimidin-4-yl)-1H-pyrazol-1-yl)azetidine-3-yl)acetonitrile], the IC50 is less than 50 nM against ROCK1 and greater than 100 nM against ROCK2.

On to `N#CCC1(n2cc(-c3ncnc4[nH]ccc34)c(N)n2)CN(C(=O)C2CC2)C1` [Example 22, 2-(3-(3-amino-4-(7H-pyrrolo[2,3-d]pyrimidin-4-yl)-1H-pyrazol-1-yl)-1-(cyclopropanecarbonyl)azetidine-3-yl)acetonitrile], for which the half-maximal inhibitory concentration (IC50) against ROCK1 and against ROCK2 was less than 50 nM in each case.

Regarding `CS(=O)(=O)N1CC(CC#N)(n2cc(-c3cc(NCC4CCOCC4)ncn3)c(N)n2)C1` [Example 76, 2-(3-(3-amino-4-(6-((tetrahydro-2H-pyran-4-yl)methyl)amino)pyrimidin-4-yl-1H-pyrazol-1-yl)-1-(methylsulfonyl)azetidine-3-yl)acetonitrile], the IC50 against ROCK1 and at ROCK2 was greater than 100 nM in each case.

As to `CC(C)S(=O)(=O)N1CC(CC#N)(n2cc(-c3ncnc4[nH]ccc34)c(C(N)=O)n2)C1` [Example 68, 1-(3-(cyanomethyl)-1-(isopropylsulfonyl)azetidine-3-yl)-4-(7H-pyrrolo[2,3-d]pyrimidin-4-yl)-1H-pyrazol-3-formamide], the IC50 against ROCK1 and against ROCK2 was greater than 100 nM each time.

In the case of `CNC(=O)N1CC(CC#N)(n2cc(-c3ncnc4[nH]ccc34)c(N)n2)C1` [Example 10, 3-(3-amino-4-{7H-pyrrolo[2,3-d]pyrimidin-4-yl}pyrazol-1-yl)-3-(cyanomethyl)-N-methylazetidine-1-formamide], the IC50 against ROCK1 and against ROCK2 was less than 5 nM in each case.

For the compound `CCS(=O)(=O)N1CC(CC#N)(n2cc(-c3cc(Cl)cn4ncnc34)c(N)n2)C1` [Example 83, 2-(3-(3-amino-4-(6-chloro-[1,2,4]triazolo[1,5-a]pyridin-8-yl)-1H-pyrazol-1-yl)-1-(ethylsulfonyl)azetidine-3-yl)acetonitrile], the 50% inhibitory concentration (IC50) against ROCK1 and on ROCK2 was greater than 100 nM each time.

As to `N#CCC1(n2cc(-c3ncnc4[nH]ccc34)c(N)n2)CN(C(=O)N2CC(F)(F)C2)C1` [Example 13, 2-(3-(3-amino-4-(7H-pyrrolo[2,3-d]pyrimidin-4-yl)-1H-pyrazol-1-yl)-1-(3,3-difluoroazetidine-1-carbonyl)azetidin-3-yl)acetonitrile], the IC50 against ROCK1 and on ROCK2 was less than 50 nM each time.

On to `CN(C)CC(=O)N1CC(CC#N)(n2cc(-c3ncnc4[nH]ccc34)c(N)n2)C1` [Example 28, 2-(3-(3-amino-4-(7H-pyrrolo[2,3-d]pyrimidin-4-yl)-1H-pyrazol-1-yl)-1-(dimethylglycine)azetidine-3-yl)acetonitrile], for which the IC50 against ROCK1 and on ROCK2 was less than 50 nM throughout.

As to `CCS(=O)(=O)N1CC(CC#N)(n2cc(-c3cc(-c4cnn(C)c4)cn4ncnc34)c(N)n2)C1` [Example 81], the IC50 on ROCK1 and against ROCK2 was greater than 100 nM throughout.

With `CS(=O)(=O)N1CC(CC#N)(n2cc(-c3ncnc(NCC4CCOCC4)n3)c(N)n2)C1` [Example 73], the IC50 against ROCK1 and against ROCK2 was greater than 100 nM each time.

With `CS(=O)(=O)N1CC(CC#N)(n2cc(-c3ncnc(NCCO)n3)c(N)n2)C1` [Example 70, 2-(3-(3-amino-4-(4-((2-hydroxyethyl)amino)-1,3,5-triazin-2-yl)-1H-pyrazol-1-yl)-1-(methylsulfonyl)azetidine-3-yl)acetonitrile], the half-inhibitory concentration (IC50) against ROCK1 and on ROCK2 was greater than 100 nM throughout.

Turning to `CS(=O)(=O)N1CC(CC#N)(n2cc(-c3ncnc(NC4CCOCC4)n3)c(N)n2)C1` [Example 72, 2-(3-(3-amino-4-(4-((tetrahydro-2H-pyran-4-yl)amino)-1,3,5-triazin-2-yl)-1H-pyrazol-1-yl)-1-(methylsulfonyl)azetidine-3-yl)acetonitrile], the IC50 against ROCK1 and against ROCK2 was greater than 100 nM each time.

As to `COCCNS(=O)(=O)N1CC(CC#N)(n2cc(-c3ncnc4[nH]ccc34)c(N)n2)C1` [Example 48, 3-(3-amino-4-(7H-pyrrolo[2,3-d]pyrimidin-4-yl)-1H-pyrazol-1-yl)-3-(cyanomethyl)-N-(2-methoxyethyl)azetidine-1-sulfonamide], the IC50 is less than 50 nM on ROCK1 and less than 10 nM on ROCK2.

As to `N#CCN1CC(CC#N)(n2cc(-c3ncnc4[nH]ccc34)c(N)n2)C1` [Example 29, 2,2′-(3-(3-amino-4-(7H-pyrrolo[2,3-d]pyrimidin-4-yl)-1H-pyrazol-1-yl)azetidine-1,3-diyl)diacetonitrile], the IC50 on ROCK1 and on ROCK2 was less than 10 nM each time.

Consider `CCNC(=O)N1CC(CC#N)(n2cc(-c3ncnc4[nH]ccc34)c(N)n2)C1` [Example 14, 3-(3-amino-4-(7H-pyrrolo[2,3-d]pyrimidin-4-yl)-1H-pyrazol-1-yl)-3-(cyanomethyl)-N-ethylazetidine-1-formamide], for which the IC50 on ROCK1 and against ROCK2 was less than 5 nM throughout.

For `N#CCC1(n2cc(-c3ncnc4[nH]ccc34)c(N)n2)CN(S(=O)(=O)NCCCl)C1` [Example 46, 3-(3-amino-4-(7H-pyrrolo[2,3-d]pyrimidin-4-yl)-1H-pyrazol-1-yl)-N-(2-chloroethyl)-3-(cyanomethyl)azetidine-1-sulfonamide], the values for the IC50 against ROCK1 and at ROCK2 were less than 10 nM and less than 5 nM, respectively.

What is called IC50 is the concentration at which inhibition is half-maximal.
